The target in the experiment is FXR ligand binding domain (Homo sapiens (Human), UniProt Q96RI1). Description: Mammalian one hybrid (M1H) Gal4 reporter gene assay in HEK293 cells. Type of experiment: cell-based. The settings on record: Gal4-FXR-LBD luciferase reporter, 16 h incubation. The procedure: Determination of a ligand mediated Gal4 promoter driven transactivation to quantify ligand binding mediated activation of FXR was performed as follows: The cDNA part encoding the FXR ligand binding domain was cloned into vector pCMV-BD (Stratagene) as a fusion to the yeast GAL4 DNA binding domain under the control of the CMV promoter. The amino acid boundaries of the ligand binding domain were amino acids 187-472 of Database entry NM_005123 (RefSeq). The plasmid pFR-Luc (Stratagene) was used as the reporter plasmid, containing a synthetic promoter with five tandem repeats of the yeast GAL4 binding sites, driving the expression of the Photinus pyralis (American firefly) luciferase gene as the reporter gene. In order to improve experimental accuracy the plasmid pRL-CMV (Promega) was cotransfected. pRL-CMV contains the constitutive CMV promoter, controlling the expression of the Renilla reniformis luciferase. […] Cells were incubated for additional 16 h before firefly and renilla luciferase activities were measured sequentially in the same cell extract using a Dual-Light-Luciferase-Assay system (Dyer et al., Anal. Biochem. 2000, 282, 158-161). […]
FXR ligand binding domain, sequence (Q96RI1 other isoform, or with tags, fused parts or gaps): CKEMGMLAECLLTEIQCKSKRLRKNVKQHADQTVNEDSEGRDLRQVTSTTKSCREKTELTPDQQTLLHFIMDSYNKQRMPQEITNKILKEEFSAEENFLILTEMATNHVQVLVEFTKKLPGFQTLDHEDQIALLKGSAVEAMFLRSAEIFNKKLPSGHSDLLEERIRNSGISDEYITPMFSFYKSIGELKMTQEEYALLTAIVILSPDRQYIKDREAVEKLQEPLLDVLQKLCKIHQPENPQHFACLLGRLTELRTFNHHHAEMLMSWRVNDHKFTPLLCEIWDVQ
Background: Reporter assays use an easily measured gene product as a stand-in for the process of interest.

Usually EC50 stands for the concentration needed to bring the measured effect to its halfway point. Low values mean higher potency in that assay, high ones lower potency in that assay. `O=C(O)c1cc(F)c2nc(C3(O)C4COCC3CC(OCc3c(-c5c(Cl)cccc5Cl)noc3C3CC3)C4)sc2c1` [Example 1, 2-((1R,5S,9S)-7-((5-Cyclopropyl-3-(2,6-dichlorophenyl)isoxazol-4-yl)methoxy)-9-hydroxy-3-oxabicyclo[3.3.1]nonan-9-yl)-4-fluorobenzo[d]thiazole-6-carboxylic acid] showed an EC50 of 216 nM. Then `O=C(O)c1ccc2nc(C3(O)C4COCC3CC(OCc3c(-c5c(Cl)cccc5Cl)noc3C3CC3)C4)sc2c1` [Example 2, 2-((1R,5S,9S)-7-((5-Cyclopropyl-3-(2,6-dichlorophenyl)isoxazol-4-yl)methoxy)-9-hydroxy-3-oxabicyclo[3.3.1]nonan-9-yl)benzo[d]thiazole-6-carboxylic acid], with 175 nM.

The record behind these values is patent US9932332B2, “FXR (NR1H4) modulating compounds” (Gilead Sciences, Inc., priority 2016, dated 2018).
